In this test the target is Sphingosine 1-phosphate receptor 1 (Homo sapiens, UniProt P21453). Put plainly: hS1P1 ERK Phosphorylation (S1P1 pERK). As to the method:
hS1P1/CHO cells were plated into BD Amine 384-well plates the day before the assay. On the day of the assay, growth medium was removed and replaced with serum-free medium (Ham's F-12 Invitrogen) and incubated for 2 hours. Test compounds pre-diluted in HBSS (Gibco)/20 mM HEPES (Gibco) were transferred to the cell plates and incubated for 7 minutes at 37° C. Cells were lysed in lysis buffer (Perkin Elmer) and phospho-ERK was measured using the SureFire pERK kit (Perkin Elmer) as described by the manufacturer. Data was plotted as percentage activation of the test compound relative to the efficacy of 10 μM S1P.

Each structure is given as a SMILES string.

Chain of Sphingosine 1-phosphate receptor 1 (P21453 whole entry): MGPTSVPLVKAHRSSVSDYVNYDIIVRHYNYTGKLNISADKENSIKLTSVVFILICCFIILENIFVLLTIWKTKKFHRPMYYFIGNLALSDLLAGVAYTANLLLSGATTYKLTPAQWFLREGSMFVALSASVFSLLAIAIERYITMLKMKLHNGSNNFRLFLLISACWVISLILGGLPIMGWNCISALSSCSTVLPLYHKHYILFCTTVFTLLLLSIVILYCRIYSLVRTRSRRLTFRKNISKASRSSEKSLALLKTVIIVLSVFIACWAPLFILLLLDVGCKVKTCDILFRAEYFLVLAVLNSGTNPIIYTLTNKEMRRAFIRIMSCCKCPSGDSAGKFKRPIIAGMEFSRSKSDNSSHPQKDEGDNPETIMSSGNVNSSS

One may read the EC50 as the concentration at which the effect is half-maximal. A low value points to a more potent agent. `CCSCC[C@H]1CCc2cc([C@H]3CC[C@](N)(COP(=O)(O)O)C3)ccc2C1` [US10166249, Example 532] came in with an EC50 of less than 10 nM.

The record behind these values is BindingDB's records for patent US10166249 (Bristol-Myers Squibb, 2019).
